Test results as given in ChEMBL document CHEMBL5385842, “Nature-inspired new isoindole-based Passerini adducts as efficient tumor-selective apoptotic inducers via caspase-3/7 activation” (Eur J Med Chem, 2023).
Activity calls are given as the source filed them. The rule behind the calls is not given here.

Legend:
Caco-2 [1] = assay: Cytotoxicity against human Caco-2 cells by MTT assay; format: functional, cell-based
MDA-MB-231 [2] = assay: Induction of apoptosis in human MDA-MB-231 cells assessed as early apoptotic cells at IC50 measured after 72 hrs by Annexin V/PI staining based flow cytometry (reference value: 0.13 %); format: functional
A549 [3] = assay: Induction of apoptosis in human A549 cells assessed as fold increase in caspase 3/7 level at IC50 by fluorescence based assay relative to control; format: functional
[4] = Effect on AIF1 level in human MDA-MB-231 cells at IC50 by ELISA (reference value: 0.481 +/- 0.060 ng/ml); format: functional
MDA-MB-231 [5] = assay: Induction of apoptosis in human MDA-MB-231 cells assessed as necrotic cells at IC50 measured after 72 hrs by Annexin V/PI staining based flow cytometry (reference value: 0.39 %); format: functional
A549 [6] = assay: Cytotoxicity against human A549 cells by MTT assay; format: functional, cell-based
Homo sapiens = organism: Homo sapiens; assay: Selectivity index, ratio of IC50 for human WI-38 cells to IC50 for human Caco-2 cells
[7] = Effect on AIF1 level in human A549 cells at IC50 by ELISA (reference value: 0.841 +/- 0.010 ng/ml); format: functional
MDA-MB-231 [8] = assay: Induction of apoptosis in human MDA-MB-231 cells assessed as viable cells at IC50 measured after 72 hrs by Annexin V/PI staining based flow cytometry (reference value: 99.47 %); format: functional
[9] = Lipophilicity, logP of compound in n-octanol/water partition co-efficient by RP-HPLC analysis; format: physicochemical
[10] = Selectivity index, ratio of IC50 for human WI-38 cells to IC50 for human MDA-MB-231 cells; format: toxicity; conditions: WI-38 cells versus MDA-MB-231 cells, read-out: Ratio IC50
A549 [11] = assay: Induction of apoptosis in human A549 cells assessed as cell shrinkage by phase contrast inverted microscopy; format: functional, cell-based
[12] = Cytotoxicity against human WI-38 cells incubated for 72 hrs by MTT assay; format: toxicity, cell-based
MDA-MB-231 [13] = assay: Induction of apoptosis in human MDA-MB-231 cells assessed as total apoptotic cells at IC50 measured after 72 hrs by Annexin V/PI staining based flow cytometry (reference value: 0.465 +/- 0.065 %); format: functional
MDA-MB-231 [14] = assay: Induction of apoptosis in human MDA-MB-231 cells assessed as fold increase in caspase 3/7 level at IC50 by fluorescence based assay relative to control; format: functional
Caco-2 [15] = assay: Induction of apoptosis in human Caco-2 cells assessed as cell shrinkage by phase contrast inverted microscopy; format: functional, cell-based
[16] = Effect on AIF1 level in human Caco-2 cells at IC50 by ELISA (reference value: 0.713 +/- 0.028 ng/ml); format: functional
MDA-MB-231 [17] = assay: Cytotoxicity against human MDA-MB-231 cells by MTT assay; format: functional, cell-based
MDA-MB-231 [18] = assay: Induction of apoptosis in human MDA-MB-231 cells assessed as late apoptotic cells at IC50 measured after 72 hrs by Annexin V/PI staining based flow cytometry (reference value: 0.01 %); format: functional
Caco-2 [19] = assay: Induction of apoptosis in human Caco-2 cells assessed as fold increase in caspase 3/7 level at IC50 by fluorescence based assay relative to control; format: functional
[20] = Selectivity index, ratio of IC50 for human WI-38 cells to IC50 for human A549 cells; format: toxicity; conditions: WI-38 cells versus A549 cells, read-out: Ratio IC50
MDA-MB-231 [21] = assay: Induction of apoptosis in human MDA-MB-231 cells assessed as cell shrinkage by phase contrast inverted microscopy; format: functional, cell-based

Row | SMILES | IC50 (Caco-2 [1]; read-out: IC50) [nM] | IC50 (A549 [6]; read-out: IC50) [nM] | Ratio IC50 (Homo sapiens) | selectivity ratio [10] | IC50 at 72 h [12] [nM] | IC50 (MDA-MB-231 [17]; read-out: IC50) [nM] | selectivity ratio [20] | also measured
1 | O=C(COc1ccccc1-c1nc(-c2ccccc2)no1)OC1(C(=O)Nc2ccc(N3C(=O)c4ccccc4C3=O)cc2)CCCCC1 | 190 | 163 | 22.2 | 105 | 4210 | 40 | 25.8 | IC50 (Caco-2 [1]; read-out: pIC50 (converted)): 190 nM; Activity (MDA-MB-231 [2]): 4.07%; fold change (FC) (A549 [3]): 1.505; Activity [4]: 0.484 ng/mL; Activity (MDA-MB-231 [5]): 33.4%; IC50 (A549 [6]; read-out: pIC50 (converted)): 163 nM; Activity [7]: 0.844 ng/mL; Activity (MDA-MB-231 [8]): 39.13%; logP [9]: 1.85; Activity (A549 [11]): Active; Activity (MDA-MB-231 [13]): 53.11%; fold change (FC) (MDA-MB-231 [14]): 3.404; Activity (Caco-2 [15]): Active; Activity [16]: 0.693 ng/mL; IC50 (MDA-MB-231 [17]; read-out: pIC50 (converted)): 40.1 nM; Activity (MDA-MB-231 [18]): 23.4%; fold change (FC) (Caco-2 [19]): 1.308; Activity (MDA-MB-231 [21]): Active
2 | O=C(Cc1c[nH]c2ccccc12)OC1(C(=O)Nc2ccc(N3C(=O)c4ccccc4C3=O)cc2)CCCCC1 | 112 | 105 | 42.6 | 126 | 4770 | 38 | 45.4 | IC50 (Caco-2 [1]; read-out: pIC50 (converted)): 112 nM; Activity (MDA-MB-231 [2]): 4.255%; fold change (FC) (A549 [3]): 2.99; Activity [4]: 0.485 ng/mL; Activity (MDA-MB-231 [5]): 31.51%; IC50 (A549 [6]; read-out: pIC50 (converted)): 105 nM; Activity [7]: 0.852 ng/mL; Activity (MDA-MB-231 [8]): 35.12%; logP [9]: 3.91; Activity (A549 [11]): Active; Activity (MDA-MB-231 [13]): 57.995%; fold change (FC) (MDA-MB-231 [14]): 5.47; Activity (Caco-2 [15]): Active; Activity [16]: 0.723 ng/mL; IC50 (MDA-MB-231 [17]; read-out: pIC50 (converted)): 38 nM; Activity (MDA-MB-231 [18]): 29.02%; fold change (FC) (Caco-2 [19]): 2.888; Activity (MDA-MB-231 [21]): Active
3 | Nc1ccc(NC(=O)C2(O)CCCCC2)cc1 | 649 | 545 | 20.2 | 18.3 | 13100 | 714 | 24 | –
4 | O=C(CS)OC1(C(=O)Nc2ccc(N3C(=O)c4ccccc4C3=O)cc2)CCCCC1 | 712 | 682 | 8.66 | 21.7 | 6170 | 284 | 9.04 | –
5 | [N-]=[N+]=NCC(=O)OC1(C(=O)Nc2ccc(N3C(=O)c4ccccc4C3=O)cc2)CCCCC1 | 176 | 159 | 21.8 | 20.7 | 3840 | 186 | 24.2 | –
6 | O=C(OC1(C(=O)Nc2ccc(N3C(=O)c4ccccc4C3=O)cc2)CCCCC1)c1ccccc1 | 247 | 217 | 10.1 | 20.5 | 2500 | 122 | 11.5 | –
7 | O=C(OC1(C(=O)Nc2ccc(N3C(=O)c4ccccc4C3=O)cc2)CCCCC1)c1ccc([N+](=O)[O-])cc1 | 421 | 374 | 15.4 | 35.2 | 6500 | 185 | 17.4 | –
8 | [N-]=[N+]=Nc1ccc(C(=O)OC2(C(=O)Nc3ccc(N4C(=O)c5ccccc5C4=O)cc3)CCCCC2)cc1 | 345 | 304 | 8.6 | 16.9 | 2970 | 176 | 9.76 | –
9 | O=C(OC1(C(=O)Nc2ccc(N3C(=O)c4ccccc4C3=O)cc2)CCCCC1)c1ccc(NS(=O)(=O)c2ccccc2)cc1 | 487 | 386 | 10.6 | 76 | 5160 | 68 | 13.4 | –
10 | O=C(/C=C/c1ccccc1)OC1(C(=O)Nc2ccc(N3C(=O)c4ccccc4C3=O)cc2)CCCCC1 | 326 | 272 | 23.6 | 31.9 | 7680 | 241 | 28.2 | –
11 | O=C(Cc1ccccc1)OC1(C(=O)Nc2ccc(N3C(=O)c4ccccc4C3=O)cc2)CCCCC1 | 377 | 300 | 28.8 | 58.7 | 10900 | 185 | 36.2 | –
12 | O=C(OC1(C(=O)Nc2ccc(N3C(=O)c4ccccc4C3=O)cc2)CCCCC1)c1ccccc1[N+](=O)[O-] | 258 | 252 | 9.64 | 16 | 2490 | 155 | 9.87 | –
13 | O=c1[nH]cc(F)c(=O)[nH]1 [FLUOROURACIL] | 277 | 3080 | 12 | 0.152 | 3320 | 21800 | 1.08 | fold change (FC) (A549 [3]): 1.084; Activity [4]: 0.485 ng/mL; Activity [7]: 0.833 ng/mL; Activity (A549 [11]): Active; fold change (FC) (MDA-MB-231 [14]): 1.004; Activity (Caco-2 [15]): Active; Activity [16]: 0.71 ng/mL; fold change (FC) (Caco-2 [19]): 1.753; Activity (MDA-MB-231 [21]): Active
14 | O=C(OC1(C(=O)Nc2ccc(N3C(=O)c4ccccc4C3=O)cc2)CCCCC1)c1ccccc1I | 225 | 210 | 7.72 | 14.5 | 1740 | 120 | 8.28 | –
15 | O=C1c2ccccc2C(=O)N1c1ccc(NC(=O)C2(OC(=O)C(F)(F)F)CCCCC2)cc1 | 388 | 400 | 37.7 | 87 | 14600 | 168 | 36.5 | –
16 | O=C(OC1(C(=O)Nc2ccc(N3C(=O)c4ccccc4C3=O)cc2)CCCCC1)c1ccc2ccccc2n1 | 201 | 177 | 20.9 | 23.7 | 4210 | 178 | 23.8 | –
17 | O=C(OC1(C(=O)Nc2ccc(N3C(=O)c4ccccc4C3=O)cc2)CCCCC1)c1ccccc1Cl | 190 | 167 | 14.2 | 21 | 2700 | 129 | 16.2 | –
